We go through one compound from patent publication US20060194845A1, “Use of ALK 5 inhibitors to modulate or inhibit myostatin activity leading to increased lean tissue accretion in animals” (Schering Corporation, priority 2004, published 2006).

The assay concerns rats. Kind of assay: Effect of Compound A on lean and fat tissue content in rats (Molecular Resonance Imaging). The assay is classed as in vivo, rat. The settings on record: 10 mg/kg in feed. How it is done:
Ten animals were treated with Compound A and a second group of ten animals served as a control group. Baseline values, in grams, of lean and fat tissue were assessed using […] Resonance Imaging technology for all animals.

The structures appear in SMILES notation.

With `NC(=O)c1ccc(-c2nc(-c3ccc4c(c3)OCO4)c(-c3ccccn3)[nH]2)cc1` [Compound A], the “fat content vs control (observation in words)” value is reported as “slight trend towards decreased fat content”. In addition, for the setting “21 days”, the “Fat (g) Δ (change in grams of tissue from baseline)” value is 50.6 g and the “Lean (g) Δ (change in grams of tissue from baseline)” value is on record as 93.7 g. For the same compound, the “Fat (g) Δ (change in grams of tissue from baseline)” value (39 days) was 73.6 g. Moreover, under “39 days, 137.8 vs. 115.3, p<0.0036”, the “increase in lean tissue compared to the control group” value is reported as 19.6%. For the same compound, the “Lean (g) Δ (change in grams of tissue from baseline)” value (39 days, p<0.0036 vs control, 10 mg/kg) was 137.8 g.
